The structures appear in SMILES notation.

One experiment deals with T1, recombinant Mst1 (Homo sapiens, UniProt Q13043).
T1 sequence (Q13043 1-487): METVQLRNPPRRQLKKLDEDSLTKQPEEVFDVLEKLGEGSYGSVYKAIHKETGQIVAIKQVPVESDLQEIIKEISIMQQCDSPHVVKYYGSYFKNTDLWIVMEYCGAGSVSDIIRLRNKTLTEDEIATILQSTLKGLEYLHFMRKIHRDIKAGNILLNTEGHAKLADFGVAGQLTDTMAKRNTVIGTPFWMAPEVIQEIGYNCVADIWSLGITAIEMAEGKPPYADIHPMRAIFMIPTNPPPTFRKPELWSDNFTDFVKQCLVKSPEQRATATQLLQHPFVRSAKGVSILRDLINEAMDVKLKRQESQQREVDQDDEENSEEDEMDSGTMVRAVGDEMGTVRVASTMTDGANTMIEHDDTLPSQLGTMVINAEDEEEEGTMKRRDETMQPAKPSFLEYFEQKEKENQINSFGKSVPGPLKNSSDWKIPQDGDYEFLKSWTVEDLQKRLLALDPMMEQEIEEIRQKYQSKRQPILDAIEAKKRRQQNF
The experiment in a line: Inhibition of Mst1 kinase activity, ELISA of Mob1 substrate phosphorylation. As to conditions: MST1 IC50, recombinant Mst1 11 nM; ATP 6.7 gIVI; GST-Mob1a substrate; 30° C. 15 min. The class given is biochemical. How it is done:
(§1) We adopt a specific ELISA (Enzyme-linked immunosorbent assay) assay for measuring the biochemical activity (FIG. 1).
(§2) Specific methods are as follows:
(§3) 1. The substrate was diluted with purified recombinant GST-Mobla 200 nM in coating buffer, added to 96-well plates (Nalge Nunc International, Denmark), coated for overnight at 4° C., washed nextday three times with rinsing solution;
(§4) a. A kinase reaction buffer;
(§5) c. compound (dissolved in DMSO, containing not more than 1% of the total volume of the reaction);
(§6) Control Group Containing No ATP or Kinase;
(§7) 3. The reaction solution was poured to terminate the kinase reaction, and washed 4 times with rinse solution, 5 minutes each wash;
(§8) 4. Add 200 μL, per well of the blocking solution, shaking for 1 hour at room temperature, washed 4 times with rinsing solution;
(§9) 7. Add TMB chromogenic solution (Biolegend, Cat.B200119, B200120). After the color reaction to a certain extent, add to each well 100 μL, of 2M H2SO4 to terminate the reaction;
(§10) 8. […] Each set of three parallel experiments, the negative control is a solution with a final concentration of 1% DMSO, the control is the reaction system containing no ATP. […] The reagents are as follows: Coating Buffer: 0.1M NaHCO 3, 0.033M Na2CO3, pH 9.5 Rinse solution: 0.05% Tween-20 in PBS Reaction buffer: 40 mM of Hepes-NaOH (pH 7.4), 10 mM of MgCl2, 1 mM of dithiothreitol (DTT), 1 mM of NaF, 1 mM of Na3VO4, 1 mM of β-glycerophosphate Blocking solution: 1% BSA dissolved in PBS Compound Inhibition of Kinase Activity
Background: ELISA stands for enzyme-linked immunosorbent assay.

The target in the next experiment is T2, recombinant MST2 (Homo sapiens, UniProt Q13188).
T2 sequence (Q13188 1-491): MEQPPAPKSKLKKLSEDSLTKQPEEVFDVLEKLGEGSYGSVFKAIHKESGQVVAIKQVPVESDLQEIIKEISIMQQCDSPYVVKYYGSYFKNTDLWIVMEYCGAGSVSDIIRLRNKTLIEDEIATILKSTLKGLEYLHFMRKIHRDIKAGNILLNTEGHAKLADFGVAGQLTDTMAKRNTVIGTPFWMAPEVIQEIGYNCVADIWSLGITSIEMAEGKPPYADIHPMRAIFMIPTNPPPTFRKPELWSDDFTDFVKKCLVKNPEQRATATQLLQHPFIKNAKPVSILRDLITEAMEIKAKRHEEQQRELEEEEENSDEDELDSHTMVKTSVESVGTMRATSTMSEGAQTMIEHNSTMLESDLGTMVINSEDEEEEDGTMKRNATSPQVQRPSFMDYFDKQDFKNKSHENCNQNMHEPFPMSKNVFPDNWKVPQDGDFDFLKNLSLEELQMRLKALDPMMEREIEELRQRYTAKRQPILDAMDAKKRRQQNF
Put plainly: Inhibition of Mst2 kinase activity, ELISA of Mob1 substrate phosphorylation. The following applies: MST2 IC50, 3.7 nM recombinant MST2; ATP 11.2 gIVI; GST-Mob1a substrate; 30° C. 15 min. The format is biochemical. How it is done: as §1, §2, §3, §4, §5, §6, §7, §8, §9, §10

On to `CN1CCN(S(=O)(=O)c2ccc(Nc3ncc4c(n3)N(C)c3ccccc3C(=O)N4)cc2)CC1` [IA-2], for which the 50% inhibitory concentration (IC50) at recombinant Mst1 stood at 2380 nM; at recombinant MST2 it was 14800 nM. For `CN1CCN(S(=O)(=O)c2ccc(Nc3ncc4c(n3)N(C3CCCC3)c3ccccc3C(=O)N4)cc2)CC1` [IB-2], in that order: greater than 30000 nM and greater than 30000 nM.

For `O=C1Nc2cnc(Nc3ccc(S(=O)(=O)N4CCC(O)CC4)cc3)nc2N(C2CCCC2)c2ccccc21` [IB-3], the IC50 at recombinant Mst1 and on recombinant MST2 was greater than 30000 nM in each case. Regarding `CN1C(=O)c2ccccc2N(C)c2nc(Nc3ccc(S(N)(=O)=O)cc3)ncc21` [IC-1], the results for the IC50 at recombinant Mst1 and at recombinant MST2 were 70 nM and 110 nM, respectively. The matching figures for `CN1CCN(S(=O)(=O)c2ccc(Nc3ncc4c(n3)N(C)c3ccccc3C(=O)N4C)cc2)CC1` [IC-2]: 2320 nM and 7800 nM. The matching figures for `CN1C(=O)c2ccccc2N(C)c2nc(Nc3ccc(S(=O)(=O)N4CCC(O)CC4)cc3)ncc21` [IC-3]: 670 nM and 520 nM. For `CSc1ccc(Nc2ncc3c(n2)N(C)c2ccccc2C(=O)N3C)cc1` [IC-6], in that order: 1910 nM and 1800 nM. `CN1C(=O)c2ccccc2N(C)c2nc(Nc3ccc(S(C)(=O)=O)cc3)ncc21` [IC-7]: the 50% inhibitory concentration (IC50) at recombinant Mst1 amounted to 500 nM; on recombinant MST2 it was 90 nM. For `CN1C(=O)c2ccccc2N(C)c2nc(Nc3ccc(S(=O)(=O)Oc4ccccc4)cc3)ncc21` [IC-8], in that order: 13500 nM and 200 nM. As for `CN1C(=O)c2ccccc2N(C)c2nc(Nc3ccc(S(=O)(=O)NC4CC4)cc3)ncc21` [IC-9], the values for the IC50 at recombinant Mst1 and on recombinant MST2 were 180 nM and 2330 nM, respectively. Consider `CN1C(=O)c2ccccc2N(C)c2nc(Nc3ccc(NS(C)(=O)=O)cc3)ncc21` [IC-10], for which the IC50 stood at 240 nM at recombinant Mst1 and 80 nM at recombinant MST2.

Consider `CCN1c2ccccc2C(=O)N(C)c2cnc(Nc3ccc(NS(C)(=O)=O)cc3)nc21` [ID-2], for which the IC50 on recombinant Mst1 stood at 80 nM; at recombinant MST2 it was 390 nM.

For `CCN1c2ccccc2C(=O)N(C)c2cnc(Nc3cccc(S(N)(=O)=O)c3)nc21` [ID-3], on recombinant Mst1, the 50% inhibitory concentration (IC50) worked out at 8650 nM. Still for that read-out and setting: for `CC(C)N1c2ccccc2C(=O)N(C)c2cnc(Nc3cccc(S(N)(=O)=O)c3)nc21` [IE-2] the value was 15800 nM. In the case of `CC(C)N1c2ccccc2C(=O)N(C)c2cnc(Nc3ccc(NS(C)(=O)=O)cc3)nc21` [IE-3], the figures for the IC50 at recombinant Mst1 and at recombinant MST2 were 2720 nM and 8210 nM, respectively.

As for `CN1C(=O)c2ccccc2N(C2CCCC2)c2nc(Nc3ccc(S(N)(=O)=O)cc3)ncc21` [IF-2], the half-inhibitory concentration (IC50) turned out to be 630 nM on recombinant Mst1 and 3860 nM on recombinant MST2.

As to `CN1C(=O)c2ccccc2N(C2CCCC2)c2nc(Nc3ccc(S(=O)(=O)N4CCC(O)CC4)cc3)ncc21` [IF-3], the IC50 on recombinant Mst1 came to 2440 nM; on recombinant MST2, 15700 nM. Regarding `CN1CCN(S(=O)(=O)c2ccc(Nc3ncc4c(n3)N(C3CCCC3)c3ccccc3C(=O)N4C)cc2)CC1` [IF-4], the 50% inhibitory concentration (IC50) on recombinant Mst1 was found to be 6460 nM. On the same count and under the same terms, then `CCN1CCN(Cc2ccc(Nc3ncc4c(n3)N(C3CCCC3)c3ccccc3C(=O)N4C)cc2C(F)(F)F)CC1` [IF-6], with 9760 nM.

For `CN1C(=O)c2ccccc2Nc2nc(Nc3ccc(S(N)(=O)=O)cc3)ncc21` [IG-1], the IC50 stood at 1550 nM on recombinant Mst1 and 2700 nM at recombinant MST2. The matching figures for `CN1C(=O)c2ccccc2Nc2nc(Nc3ccc(NS(C)(=O)=O)cc3)ncc21` [IG-2]: 5800 nM and 14600 nM. For `Cc1ccc2c(c1)N(C)c1nc(Nc3ccc(S(C)(=O)=O)cc3)ncc1N(C)C2=O` [IH-1], in that order: 5010 nM and 4810 nM. For the molecule `Cc1cccc2c1N(C)c1nc(Nc3ccc(S(C)(=O)=O)cc3)ncc1N(C)C2=O` [IH-2], the values for the half-inhibitory concentration (IC50) at recombinant Mst1 and at recombinant MST2 were 890 nM and 1680 nM, respectively. For `Cc1cccc2c1N(C)c1nc(Nc3ccc(S(N)(=O)=O)cc3)ncc1N(C)C2=O` [IH-4], in that order: 150 nM and 190 nM. The matching figures for `Cc1ccc2c(c1)N(C)c1nc(Nc3ccc(S(N)(=O)=O)cc3)ncc1N(C)C2=O` [IH-5]: 2400 nM and 2730 nM.

Consider `CN1C(=O)c2ccc(F)cc2N(C)c2nc(Nc3ccc(S(N)(=O)=O)cc3)ncc21` [IH-7], for which the IC50 on recombinant Mst1 is 3120 nM; on recombinant MST2, 2490 nM. Consider `CN1C(=O)c2ccc(F)cc2N(C)c2nc(Nc3ccc(S(C)(=O)=O)cc3)ncc21` [IH-8], for which the IC50 stood at 2170 nM at recombinant Mst1 and 3360 nM on recombinant MST2. For `CN1C(=O)c2cc(Cl)ccc2N(C)c2nc(Nc3ccc(S(C)(=O)=O)cc3)ncc21` [IH-9], in that order: 5670 nM and 11600 nM. In the case of `CN1C(=O)c2cc(Cl)ccc2N(C)c2nc(Nc3ccc(S(N)(=O)=O)cc3)ncc21` [IH-10], the IC50 at recombinant Mst1 came out at 5930 nM. Take `CN1C(=O)c2cccc(F)c2N(C)c2nc(Nc3ccc(S(N)(=O)=O)cc3)ncc21` [IH-11]: the IC50 on recombinant Mst1 came out at 230 nM; at recombinant MST2, 440 nM. The matching figures for `CN1C(=O)c2cccc(F)c2N(C)c2nc(Nc3ccc(S(C)(=O)=O)cc3)ncc21` [IH-12]: 1660 nM and 1940 nM. In the case of `CN1C(=O)c2ccc(Cl)cc2N(C)c2nc(Nc3ccc(S(N)(=O)=O)cc3)ncc21` [IH-13], the IC50 at recombinant Mst1 is 7820 nM; on recombinant MST2, 9470 nM.

For the molecule `CN1C(=O)c2ccc(Cl)cc2N(C)c2nc(Nc3ccc(S(C)(=O)=O)cc3)ncc21` [IH-14], the half-inhibitory concentration (IC50) at recombinant MST2 is 22500 nM. As to `CN1C(=O)c2sccc2N(C)c2nc(Nc3cccc(S(N)(=O)=O)c3)ncc21` [II-2], at recombinant Mst1, the concentration for half-maximal inhibition (IC50) amounted to 2710 nM. Regarding `CSc1ccc(Nc2ncc3c(n2)N(C)c2ccsc2C(=O)N3C)cc1` [II-3], the IC50 on recombinant Mst1 was 850 nM; at recombinant MST2 it was 1720 nM. Turning to `CN1C(=O)c2sccc2N(C)c2nc(Nc3ccc(S(C)(=O)=O)cc3)ncc21` [II-4], the results for the IC50 at recombinant Mst1 and at recombinant MST2 were 170 nM and 220 nM, respectively. For `CN1C(=O)c2sccc2N(C)c2nc(Nc3ccc(S(=O)(=O)Oc4ccccc4)cc3)ncc21` [II-5], in that order: 4640 nM and 8890 nM. For `CN1C(=O)c2sccc2N(C)c2nc(Nc3ccc(S(=O)(=O)NC4CC4)cc3)ncc21` [II-6], in that order: 260 nM and 20 nM.

For `CN1CCN(S(=O)(=O)c2ccc(Nc3ncc4c(n3)N(C)c3ccsc3C(=O)N4C)cc2)CC1` [II-7], the results for the half-maximal inhibitory concentration (IC50) at recombinant Mst1 and on recombinant MST2 were 1100 nM and 150 nM, respectively. Regarding `CN1C(=O)c2sccc2N(C)c2nc(Nc3ccc(S(=O)(=O)N4CCC(O)CC4)cc3)ncc21` [II-8], the IC50 at recombinant Mst1 worked out at 80 nM; on recombinant MST2, 1030 nM. For `CN1C(=O)c2sccc2N(C)c2nc(Nc3ccc(C(=O)O)cc3)ncc21` [II-10], in that order: 1020 nM and 1970 nM. For `CN1C(=O)c2sccc2N(C)c2nc(Nc3ccc(O)cc3)ncc21` [II-12], in that order: 570 nM and 220 nM. For `CN1C(=O)c2sccc2N(C)c2nc(Nc3ccc(C(N)=O)cc3)ncc21` [II-13], in that order: 330 nM and 260 nM. For the molecule `CN1C(=O)c2sccc2N(C)c2nc(Nc3ccc(N4CCC(O)CC4)cc3)ncc21` [II-15], the figures for the 50% inhibitory concentration (IC50) at recombinant Mst1 and at recombinant MST2 were 650 nM and 1990 nM, respectively.

On to `CN1C(=O)c2sccc2N(C)c2nc(Nc3cc[nH]n3)ncc21` [II-27], for which the concentration for half-maximal inhibition (IC50) on recombinant Mst1 amounted to 3440 nM.

As a reminder, the IC50 is the point on the concentration scale where inhibition reaches its midpoint.

The values are drawn from patent US10975092B2, “Pyrimidine seven-membered-ring compounds, preparation method therefor, pharmaceutical composition thereof, and uses thereof” (priority 2016, dated 2021).
